Measured values: ChEMBL document CHEMBL1201862, “PubChem BioAssay data set” (2004)
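1) Cells in 96-well plates. 2) Compound, 48 h, 5 concentrations. 3) Linear interpolation between surrounding doses. 4) Unreached endpoint = highest concentration. GI50 = concentration required for 50% inhibition of growth.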 Active and inactive are the calls of the source. No stated cut-off is given here; in the data, active = GI50 up to about 1.1 µM and inactive = higher.

Tests used:
Experiment in all cases: NCI-60 cell line screen, 48 h
SNB-78 = tested on: SNB-78
KM-20L2 = tested on: KM-20L2
A498 = tested on: A498
NCI-H226 = tested on: NCI-H226
HL-60 = tested on: HL-60
DLD-1 = tested on: DLD-1
SF-268 = tested on: SF-268
COLO 205 = tested on: COLO 205
HOP-92 = tested on: HOP-92
OVCAR-5 = tested on: OVCAR-5
SR = tested on: SR
ACHN = tested on: ACHN
NCI-H522 = tested on: NCI-H522
Hs-578T = tested on: Hs-578T
MDA-MB-435 = tested on: MDA-MB-435
MDA-MB-231 = tested on: MDA-MB-231
DU-145 = tested on: DU-145
BT-549 = tested on: BT-549
T47D = tested on: T47D
MDA-N = tested on: MDA-N

With `C=CCC(O[Si](C)(C)C(C)(C)C)c1cc(O[Si](C)(C)C(C)(C)C)ccc1OC` (stereo not given) the GI50 (SNB-78) was > 49.2 µM (inactive), the GI50 (KM-20L2) was > 100 µM (inactive) and the GI50 (A498) was 46.9 µM (inactive). For the same compound, the GI50 (NCI-H226) was > 53.6 µM (inactive), the GI50 (HL-60) was > 100 µM (inactive) and the GI50 (DLD-1) was > 70.3 µM (inactive). For the same compound, the GI50 (SF-268) was > 85.9 µM (inactive), the GI50 (COLO 205) was > 83 µM (inactive) and the GI50 (HOP-92) was 35.4 µM (inactive). For the same compound, the GI50 (OVCAR-5) was > 100 µM (inactive).

`CN1CCN(c2cc(-c3cc4ccccc4o3)oc(=O)c2C#N)CC1` was tested, and the GI50 (SNB-78) was > 100 µM (inactive), the GI50 (SR) was 36.8 µM (inactive) and the GI50 (KM-20L2) was 89.5 µM (inactive). For the same compound, the GI50 (A498) was 63.8 µM (inactive), the GI50 (NCI-H226) was 14.2 µM (inactive) and the GI50 (HL-60) was 43.9 µM (inactive). For the same compound, the GI50 (DLD-1) was 76 µM (inactive), the GI50 (SF-268) was 51.2 µM (inactive) and the GI50 (COLO 205) was 66.5 µM (inactive). For the same compound, the GI50 (ACHN) was 59 µM (inactive) and the GI50 (OVCAR-5) was 50.1 µM (inactive).

`CC(=O)OC1CC2(O)C(CCC3(C)C(c4ccc(=O)oc4)CCC32O)C2(C)C1=CC(O)C1OC12` (stereo not given) was tested, and the GI50 (SNB-78) was 0.0442 µM (active), the GI50 (KM-20L2) was 0.067 µM (active) and the GI50 (A498) was 0.113 µM (active). The GI50 (NCI-H226) was 0.115 µM (active), the GI50 (HL-60) was 0.0575 µM (active) and the GI50 (DLD-1) was 0.0506 µM (active). The GI50 (NCI-H522) was 0.025 µM (active), the GI50 (SF-268) was 0.0295 µM (active) and the GI50 (COLO 205) was 0.0726 µM (active). The GI50 (HOP-92) was 0.0538 µM (active) and the GI50 (OVCAR-5) was 0.239 µM (active).

For `C=CCc1cccc(/C=N\N/C(N)=N/O)c1O`, the GI50 (SNB-78) was 21.5 µM (inactive), the GI50 (KM-20L2) was 3.98 µM (inactive) and the GI50 (A498) was 7.76 µM (inactive). For the same compound, the GI50 (NCI-H226) was 3.18 µM (inactive), the GI50 (HL-60) was 2.14 µM (inactive) and the GI50 (DLD-1) was 4.84 µM (inactive). The GI50 (NCI-H522) was 3.23 µM (inactive), the GI50 (SF-268) was 3.03 µM (inactive) and the GI50 (COLO 205) was 5.01 µM (inactive). For the same compound, the GI50 (HOP-92) was 6.56 µM (inactive) and the GI50 (OVCAR-5) was 5.02 µM (inactive).

With `O=P1(c2ccccc2)Nc2ccccc2SSc2ccccc2N1` the GI50 (SNB-78) was 24.2 µM (inactive), the GI50 (KM-20L2) was 17.9 µM (inactive) and the GI50 (A498) was 20.4 µM (inactive). The GI50 (NCI-H226) was 17 µM (inactive), the GI50 (HL-60) was 13.8 µM (inactive) and the GI50 (DLD-1) was 17 µM (inactive). For the same compound, the GI50 (NCI-H522) was 15.1 µM (inactive), the GI50 (SF-268) was 17.5 µM (inactive) and the GI50 (COLO 205) was 20 µM (inactive). The GI50 (HOP-92) was 15.4 µM (inactive) and the GI50 (OVCAR-5) was 21.2 µM (inactive).

In the case of `COc1cc(CCCOC2OC(COC3OCC(O)C(O)C3O)C(O)C(O)C2O)cc2cc(-c3ccc4c(c3)OCO4)oc12` (stereo not given), the GI50 (SNB-78) is reported as > 175 µM (inactive), the GI50 (KM-20L2) is reported as > 175 µM (inactive) and the GI50 (A498) is reported as > 27.7 µM (inactive). The GI50 (NCI-H226) was > 175 µM (inactive), the GI50 (HL-60) was > 175 µM (inactive) and the GI50 (DLD-1) was > 175 µM (inactive). The GI50 (NCI-H522) was > 175 µM (inactive), the GI50 (SF-268) was > 175 µM (inactive) and the GI50 (COLO 205) was > 175 µM (inactive). The GI50 (HOP-92) was > 175 µM (inactive) and the GI50 (OVCAR-5) was > 175 µM (inactive).

`Oc1c(CNCCCN2CCCC2)cc(Cl)c2cccnc12` was tested, and the GI50 (SNB-78) was 14.2 µM (inactive), the GI50 (KM-20L2) was 3.78 µM (inactive) and the GI50 (A498) was 15 µM (inactive). For the same compound, the GI50 (NCI-H226) was 3.15 µM (inactive), the GI50 (HL-60) was 0.364 µM (active) and the GI50 (DLD-1) was 3.22 µM (inactive). The GI50 (NCI-H522) was 4.22 µM (inactive), the GI50 (SF-268) was 3.27 µM (inactive) and the GI50 (COLO 205) was 3.79 µM (inactive). The GI50 (HOP-92) was 7 µM (inactive) and the GI50 (OVCAR-5) was 2.52 µM (inactive).

In the case of `COC(=O)C1=C(C)N2CCOC2(C)C(C(=O)OC)C1c1ccc[nH]1` (stereo not given), the GI50 (SR) is reported as > 100 µM (inactive), the GI50 (KM-20L2) is reported as > 100 µM (inactive) and the GI50 (NCI-H226) is reported as > 100 µM (inactive). The GI50 (HL-60) was > 100 µM (inactive), the GI50 (DLD-1) was > 100 µM (inactive) and the GI50 (SF-268) was > 100 µM (inactive). For the same compound, the GI50 (COLO 205) was > 100 µM (inactive), the GI50 (HOP-92) was > 100 µM (inactive) and the GI50 (ACHN) was > 100 µM (inactive).

`COc1cccc(C2C(C(=O)O)=C(CO)Oc3cc4c(cc32)OCO4)c1OC` (stereo not given) was tested, and the GI50 (SNB-78) was > 100 µM (inactive), the GI50 (KM-20L2) was > 100 µM (inactive) and the GI50 (A498) was > 100 µM (inactive). For the same compound, the GI50 (NCI-H226) was > 100 µM (inactive), the GI50 (HL-60) was > 100 µM (inactive) and the GI50 (DLD-1) was > 100 µM (inactive). The GI50 (NCI-H522) was > 100 µM (inactive), the GI50 (SF-268) was > 100 µM (inactive) and the GI50 (COLO 205) was > 100 µM (inactive). For the same compound, the GI50 (HOP-92) was 97.7 µM (inactive) and the GI50 (ACHN) was > 100 µM (inactive).

In the case of `COc1cccc2c1C(=O)c1c(O)c3c(c(O)c1C2=O)C[C@@](O)(C(=O)CO)C[C@@H]3OC1CC(N2CCOCC2)C(O)C(C)O1` (stereo not given in full), the GI50 (SNB-78) is reported as 0.0025 µM (active), the GI50 (SR) is reported as 0.00466 µM (active) and the GI50 (KM-20L2) is reported as 0.0025 µM (active). The GI50 (A498) was 0.00315 µM (active), the GI50 (Hs-578T) was 0.0249 µM (active) and the GI50 (MDA-MB-435) was 0.0478 µM (active). For the same compound, the GI50 (MDA-MB-231) was 0.0551 µM (active), the GI50 (NCI-H226) was 0.00562 µM (active) and the GI50 (HL-60) was 0.0025 µM (active). The GI50 (DLD-1) was 0.00277 µM (active), the GI50 (NCI-H522) was 0.0025 µM (active) and the GI50 (SF-268) was 0.0239 µM (active). The GI50 (DU-145) was 0.0497 µM (active), the GI50 (COLO 205) was 0.00325 µM (active) and the GI50 (HOP-92) was 0.00975 µM (active). The GI50 (BT-549) was 0.0525 µM (active), the GI50 (ACHN) was 0.00513 µM (active) and the GI50 (T47D) was 0.0574 µM (active). For the same compound, the GI50 (MDA-N) was 0.0328 µM (active) and the GI50 (OVCAR-5) was 0.00275 µM (active).

For `Cc1cc(C)nc(NS(=O)(=O)c2ccc(Nc3c4ccccc4nc4c(C(=O)N5CCN(CCOS(C)(=O)=O)CC5)cccc34)cc2)n1`, the GI50 (SNB-78) was > 100 µM (inactive), the GI50 (KM-20L2) was > 100 µM (inactive) and the GI50 (A498) was > 100 µM (inactive). The GI50 (NCI-H226) was > 100 µM (inactive), the GI50 (HL-60) was > 100 µM (inactive) and the GI50 (DLD-1) was > 100 µM (inactive). The GI50 (SF-268) was > 100 µM (inactive), the GI50 (COLO 205) was > 100 µM (inactive) and the GI50 (HOP-92) was > 100 µM (inactive). For the same compound, the GI50 (ACHN) was > 100 µM (inactive) and the GI50 (OVCAR-5) was > 100 µM (inactive).

With `O=C1OC(c2ccccc2)=N/C1=C\c1ccc(Oc2ccc(Cl)c(Cl)c2)cc1` the GI50 (SNB-78) was 25.9 µM (inactive), the GI50 (SR) was 21.7 µM (inactive) and the GI50 (KM-20L2) was 56.6 µM (inactive). The GI50 (A498) was > 100 µM (inactive), the GI50 (HL-60) was 27.9 µM (inactive) and the GI50 (DLD-1) was 48.9 µM (inactive). For the same compound, the GI50 (NCI-H522) was 30.1 µM (inactive), the GI50 (SF-268) was 23.1 µM (inactive) and the GI50 (COLO 205) was > 100 µM (inactive). The GI50 (HOP-92) was 55 µM (inactive), the GI50 (ACHN) was 63.1 µM (inactive) and the GI50 (OVCAR-5) was > 100 µM (inactive).

In the case of `CC1Oc2c(c(O)cc3oc(=O)cc(-c4ccccc4)c23)C(=O)C1C` (stereo not given), the GI50 (SNB-78) is reported as > 100 µM (inactive), the GI50 (KM-20L2) is reported as > 100 µM (inactive) and the GI50 (A498) is reported as > 100 µM (inactive). The GI50 (NCI-H226) was > 100 µM (inactive), the GI50 (HL-60) was > 100 µM (inactive) and the GI50 (DLD-1) was > 100 µM (inactive). The GI50 (NCI-H522) was > 100 µM (inactive), the GI50 (SF-268) was > 100 µM (inactive) and the GI50 (COLO 205) was > 100 µM (inactive). For the same compound, the GI50 (HOP-92) was > 100 µM (inactive) and the GI50 (ACHN) was > 100 µM (inactive).
